Experimental data: PubChem BioAssay (NCI)
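The concentration for 50% growth inhibition is given as GI50. TGI is the concentration that stops growth completely.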

How the values were obtained:
Experiment in all cases: NCI tumour cell line growth inhibition, 384-well format
786-0 renal = tested on: 786-0 renal
A498 renal = tested on: A498 renal
A549 NSCLC = tested on: A549 NSCLC
ACHN renal = tested on: ACHN renal
BT-549 breast = tested on: BT-549 breast
CAKI-1 renal = tested on: CAKI-1 renal
CCRF-CEM leukemia = tested on: CCRF-CEM leukemia
COLO 205 colon = tested on: COLO 205 colon
DU-145 prostate = tested on: DU-145 prostate
EKVX NSCLC = tested on: EKVX NSCLC
HCC-2998 colon = tested on: HCC-2998 colon
HCT-116 colon = tested on: HCT-116 colon
HCT-15 colon = tested on: HCT-15 colon
HL-60(TB) leukemia = tested on: HL-60(TB) leukemia
HOP-62 NSCLC = tested on: HOP-62 NSCLC
HOP-92 NSCLC = tested on: HOP-92 NSCLC
HS 578T breast = tested on: HS 578T breast
HT29 colon = tested on: HT29 colon
IGROV1 ovarian = tested on: IGROV1 ovarian
K-562 leukemia = tested on: K-562 leukemia
KM12 colon = tested on: KM12 colon
LOX IMVI melanoma = tested on: LOX IMVI melanoma
M14 melanoma = tested on: M14 melanoma
MALME-3M melanoma = tested on: MALME-3M melanoma
MCF7 breast = tested on: MCF7 breast
MDA-MB-231 breast = tested on: MDA-MB-231 breast
MDA-MB-435 melanoma = tested on: MDA-MB-435 melanoma
MDA-MB-468 breast = tested on: MDA-MB-468 breast
MOLT-4 leukemia = tested on: MOLT-4 leukemia
NCI-H226 lung = tested on: NCI-H226 lung
NCI-H23 lung = tested on: NCI-H23 lung
NCI-H322M lung = tested on: NCI-H322M lung
NCI-H460 NSCLC = tested on: NCI-H460 NSCLC
NCI-H522 lung = tested on: NCI-H522 lung
NCI/ADR-RES ovarian = tested on: NCI/ADR-RES ovarian
OVCAR-3 ovarian = tested on: OVCAR-3 ovarian
OVCAR-4 ovarian = tested on: OVCAR-4 ovarian
OVCAR-5 ovarian = tested on: OVCAR-5 ovarian
OVCAR-8 ovarian = tested on: OVCAR-8 ovarian
PC-3 prostate = tested on: PC-3 prostate
RPMI-8226 leukemia = tested on: RPMI-8226 leukemia
RXF 393 renal = tested on: RXF 393 renal
SF-268 CNS = tested on: SF-268 CNS
SF-295 CNS = tested on: SF-295 CNS
SF-539 CNS = tested on: SF-539 CNS
SK-MEL-28 melanoma = tested on: SK-MEL-28 melanoma
SK-MEL-5 melanoma = tested on: SK-MEL-5 melanoma
SK-OV-3 ovarian = tested on: SK-OV-3 ovarian
SN12C renal = tested on: SN12C renal
SNB-19 CNS = tested on: SNB-19 CNS
SNB-75 CNS = tested on: SNB-75 CNS
SW-620 colon = tested on: SW-620 colon
T-47D breast = tested on: T-47D breast
TK-10 renal = tested on: TK-10 renal
U251 glioblastoma = tested on: U251 glioblastoma
UACC-257 melanoma = tested on: UACC-257 melanoma
UACC-62 melanoma = tested on: UACC-62 melanoma
UO-31 renal = tested on: UO-31 renal

## NC(=O)[C@H]1CCN(c2ncnc(N)c2F)C[C@@H]1N1CCC[C@@H](Nc2cc(Cl)cc(C(F)(F)F)c2)C1=O
786-0 renal
  GI50: 15.6 µM
  TGI: 53.4 µM
A498 renal
  GI50: 12.5 µM
  TGI: 29.2 µM
A549 NSCLC
  GI50: 10.3 µM
  TGI: 25 µM
ACHN renal
  GI50: 7.86 µM
  TGI: 25.9 µM
BT-549 breast
  GI50: 15.6 µM
  TGI: 31.6 µM
CAKI-1 renal
  GI50: 11.5 µM
  TGI: 54.3 µM
CCRF-CEM leukemia
  GI50: 10.2 µM
  TGI: 22.1 µM
COLO 205 colon
  GI50: 7.06 µM
  TGI: 21.5 µM
DU-145 prostate
  GI50: 15.6 µM
  TGI: 53.1 µM
EKVX NSCLC
  GI50: 12.2 µM
  TGI: 39.4 µM
HCC-2998 colon
  GI50: 13.6 µM
  TGI: 28.5 µM
HCT-116 colon
  GI50: 9.04 µM
  TGI: 22 µM
HCT-15 colon
  GI50: 8.54 µM
  TGI: 32.7 µM
HL-60(TB) leukemia
  GI50: 10.8 µM
  TGI: 22.7 µM
HOP-62 NSCLC
  GI50: 13.6 µM
  TGI: 35.8 µM
HOP-92 NSCLC
  GI50: 13.8 µM
  TGI: 33.7 µM
HS 578T breast
  GI50: 17.4 µM
  TGI: 39.3 µM
HT29 colon
  GI50: 7.05 µM
  TGI: 22 µM
IGROV1 ovarian
  GI50: 2.34 µM
  TGI: 17.4 µM
K-562 leukemia
  GI50: 8.33 µM
  TGI: 20.9 µM
KM12 colon
  GI50: 4.29 µM
  TGI: 30.7 µM
LOX IMVI melanoma
  GI50: 11.2 µM
  TGI: 23.4 µM
M14 melanoma
  GI50: 10.9 µM
  TGI: 24.4 µM
MALME-3M melanoma
  GI50: 14.5 µM
  TGI: 28.5 µM
MCF7 breast
  GI50: 14.5 µM
  TGI: 36.3 µM
MDA-MB-231 breast
  GI50: 10.7 µM
  TGI: 39.7 µM
MDA-MB-435 melanoma
  GI50: 19.9 µM
  TGI: 67.1 µM
MDA-MB-468 breast
  GI50: 2.21 µM
  TGI: 11.9 µM
MOLT-4 leukemia
  GI50: 1.85 µM
  TGI: 6.1 µM
NCI-H226 lung
  GI50: 10.9 µM
  TGI: 34.5 µM
NCI-H23 lung
  GI50: 14.8 µM
  TGI: 32.2 µM
NCI-H322M lung
  GI50: 21.3 µM
  TGI: 52 µM
NCI-H460 NSCLC
  GI50: 13.4 µM
  TGI: 27.1 µM
NCI-H522 lung
  GI50: 5.3 µM
  TGI: 17.9 µM
NCI/ADR-RES ovarian
  GI50: 47.6 µM
  TGI: > 100 µM
OVCAR-3 ovarian
  GI50: 16.3 µM
  TGI: 35.4 µM
OVCAR-4 ovarian
  GI50: 19.9 µM
  TGI: 64.8 µM
OVCAR-5 ovarian
  GI50: 12.9 µM
  TGI: 40.2 µM
OVCAR-8 ovarian
  GI50: 21.5 µM
  TGI: 73.6 µM
PC-3 prostate
  GI50: 11.6 µM
  TGI: 46.8 µM
RPMI-8226 leukemia
  GI50: 11 µM
  TGI: 23.1 µM
RXF 393 renal
  GI50: 3.44 µM
  TGI: 13.4 µM
SF-268 CNS
  GI50: 3.26 µM
  TGI: 10.5 µM
SF-295 CNS
  GI50: 14.5 µM
  TGI: 31.6 µM
SF-539 CNS
  GI50: 14.5 µM
  TGI: 33.8 µM
SK-MEL-28 melanoma
  GI50: 15.4 µM
  TGI: 32.5 µM
SK-MEL-5 melanoma
  GI50: 9.85 µM
  TGI: 21.6 µM
SK-OV-3 ovarian
  GI50: 6.43 µM
  TGI: 40.1 µM
SN12C renal
  GI50: 8.02 µM
  TGI: 38.4 µM
SNB-19 CNS
  GI50: 30 µM
  TGI: > 100 µM
SNB-75 CNS
  GI50: 12.5 µM
  TGI: 34.2 µM
SW-620 colon
  GI50: 15.2 µM
  TGI: 31.9 µM
T-47D breast
  GI50: 6.32 µM
  TGI: 23.2 µM
TK-10 renal
  GI50: 14.8 µM
  TGI: 37.5 µM
U251 glioblastoma
  GI50: 17.2 µM
  TGI: 60 µM
UACC-257 melanoma
  GI50: 14.9 µM
  TGI: 28.5 µM
UACC-62 melanoma
  GI50: 6.7 µM
  TGI: 19.7 µM
UO-31 renal
  GI50: 20.3 µM
  TGI: 57.4 µM
